Results reported in PMC10808066, “The CRISPR effector Cam1 mediates membrane depolarization for phage defence” (Nature, 2024).
“And” between values parts separate entries of the source, which are not always exact repeats. Equal entries are not always repeated.

How the values were obtained:
[1] = molecular target: NhCam1–His (Nitrosococcus halophilus Nc4); test: cross-linking; in vivo in S. aureus, 2 mM DSS and BMH, 1 h at room temperature, with or without aTc; Western blot of lysates with anti-His6
[2] = molecular target: MGSS–His6–TEV–NhCam1 (full-length NhCam1) (Nitrosococcus halophilus Nc4); test: SEC-MALS; full-length Cam1 in DDM micelles, conjugate analysis; 25 mM Tris pH 8, 500 mM NaCl, 2 mM β-mercaptoethanol, 0.02% DDM
[3] = molecular target: gpCam1-His (unknown Gammaproteobacterium); test: cross-linking; in vivo in S. aureus, 2 mM DSS and BMH, 1 h at room temperature, with or without aTc; Western blot of lysates with anti-His6
[4] = molecular target: MvCam1-His (Methylomarium vadi); test: as above
[5] = molecular target: T1, NhCam1 (cyclic oligoadenylate-activated membrane protein 1; WP_013033759) (Nitrosococcus halophilus, UniProt D5BXZ3, T97A); test: ITC; type: binding
T1 construct: gene Nhal_2839; CARF domain, residues 67–206

[6] = molecular target: T2, NhCam1 (cyclic oligoadenylate-activated membrane protein 1; WP_013033759) (Nitrosococcus halophilus, UniProt D5BXZ3); test: ITC; […] Å X-ray crystal structure; type: binding
T2 construct: gene Nhal_2839; CARF domain, residues 67–206 (ITC; Methods: 66–206); residues 42–206 (crystal); homodimer, one ligand per dimer
T2 sequence (D5BXZ3 67-206): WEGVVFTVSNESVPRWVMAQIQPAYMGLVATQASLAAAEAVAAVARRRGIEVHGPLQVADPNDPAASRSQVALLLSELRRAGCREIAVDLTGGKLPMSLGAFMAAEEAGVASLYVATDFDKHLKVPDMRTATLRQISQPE

[7] = molecular target: T3, NhCam1 (cyclic oligoadenylate-activated membrane protein 1; WP_013033759) (Nitrosococcus halophilus, UniProt D5BXZ3, T183A/Y180A); test: ITC; type: binding
T3 construct: gene Nhal_2839; CARF domain, residues 67–206

[8] = molecular target: T4, NhCam1 (cyclic oligoadenylate-activated membrane protein 1; WP_013033759) (Nitrosococcus halophilus, UniProt D5BXZ3, N76A/S75A); test: ITC; type: binding
T4 construct: gene Nhal_2839; CARF domain, residues 67–206

[9] = molecular target: T5, NhCam1 (cyclic oligoadenylate-activated membrane protein 1; WP_013033759) (Nitrosococcus halophilus, UniProt D5BXZ3, M194A/P192A/V79A); test: ITC; type: binding
T5 construct: gene Nhal_2839; CARF domain, residues 67–206

Molecule: NhCam1–His (natural protein)
- stoichiometry N [1]: 2 and 4

Molecule: MGSS–His6–TEV–NhCam1 (full-length NhCam1) (natural protein)
- stoichiometry N [2]: 4

Molecule: gpCam1-His (natural protein)
- stoichiometry N [3]: 2 and 4

Molecule: MvCam1-His (natural protein)
- stoichiometry N [4]: 2 and 4

Molecule: Nc1ncnc2c1ncn2[C@@H]1O[C@@H]2COP(=O)(O)O[C@H]3[C@@H](O)[C@H](n4cnc5c(N)ncnc54)O[C@@H]3COP(=O)(O)O[C@H]3[C@@H](O)[C@H](n4cnc5c(N)ncnc54)O[C@@H]3COP(=O)(O)O[C@H]3[C@@H](O)[C@H](n4cnc5c(N)ncnc54)O[C@@H]3COP(=O)(O)O[C@H]2[C@H]1O [cA4]
- Kd [5]: 3.74 µM
- Kd [6]: 0.012 µM
- Kd [7]: 4.5 µM
- Kd [8]: 4 µM
- Kd [9]: 2.1 µM
